Data as given in paper PMC10340464, “Identification of a Novel SSTR3 Full Agonist for the Treatment of Nonfunctioning Pituitary Adenomas” (Cancers, 2023).

System: HA-SSTR2
Assay: SSTR2 internalization in HEK293 cells, confocal microscopy
Format: cell-based, human
Conditions: 1 µM agonist, 30 min 37 °C
Procedure: HEK293 cells obtained from DSMZ (Braunschweig, Germany) were transfected with plasmid encoding […] HA-tagged SSTR2, SSTR3 or SSTR5 receptors.
HEK293 cells stably expressing HA-tagged hSSTR cultures were preincubated with anti-HA antibody for 2 h at 4 °C and then exposed to 1 µM agonist for 30 min at 37 °C before fixing and further labeling with Alexa488-conjugated secondary antibody. After mounting with Roti®-MountFluorCare DAPI, cultures were examined using a Zeiss LSM510 META laser scanning confocal microscope (Zeiss, Jena, Germany) (see Supplementary Materials for details).
GH produced by primary cultures was tested by ELISA assay using Rat Growth Hormone Biotrak Enzyme immunoassay Mouse/Rat Growth ELISA (DSL-10-72100) or Rat/Mouse Growth Hormone ELISA (Millipore EZRMGH-45K) diluting supernatants 1:20, according to manufacturer’s instructions. […]
U2OS recombinant cell lines were obtained from Innoprot (Derio, Spain). […] Nuclei were stained using DAPI (2 μg/ml) and the ﬂuorescence was measured using a BD Pathway 855 High-Content Bioimager from Becton Dickinson. The receptor internalization was calculated using AttoVision Software. […]
Agonist activity of test compounds was calculated relatively to positive control

COc1cc2cccc(OC)c2cc1C[C@H]1NC(=O)[C@H](Cc2ccc(O)cc2)NC(=O)[C@@H]2C[C@@H](OC(=O)NCCN)CN2C(=O)[C@H](Cc2ccccc2)NC(=O)[C@H](Cc2ccc(OCc3ccccc3)cc2)NC(=O)[C@H](CCCCN)NC1=O [ITF2984, Cyclo[Tyr(Bn)-Phe-Pro(4-OCONH(CH2)2NH2)-Tyr-3,8-diMeONal-Lys]]
internalization of SSTR2 in transfected HEK293 cells: partial internalization
